Assay results: patent publication EP0121012A1, “Oral compositions” (UNILEVER PLC, priority 1983, dated 1984)

Assays:
[1] = system: S.mutans 6715; test: Inhibition of bacterial growth (24 h, optical density); assay type: cell-based, Streptococcus mutans; conditions: recalculated as ppm F, 1440 min
[2] = system: S.mutans OMZ-176; test: as above; assay type: cell-based, Streptococcus mutans; conditions: for IC50: 50% inhibition in growth, 24 hours, means of triplicate experiments, read-out: ID/50 (the source's name); for ID/50: recalculated as ppm F, 1440 min
[3] = system: S.salivarius SS4; test: as above; assay type: cell-based, Streptococcus salivarius; conditions: for IC50: 50% inhibition in growth, 24 hours, means of triplicate experiments, read-out: ID/50 (the source's name); for ID/50: recalculated as ppm F, 1440 min
[4] = system: S.salivarius H-257; test: as above; assay type: cell-based, Streptococcus salivarius; conditions: for IC50: 50% inhibition in growth, 24 hours, means of triplicate experiments, read-out: ID/50 (the source's name); for ID/50: recalculated as ppm F, 1440 min
[5] = system: S.sanguis 10556; test: as above; assay type: cell-based, Streptococcus sanguis; conditions: for IC50: 50% inhibition in growth, 24 hours, means of triplicate experiments, read-out: ID/50 (the source's name); for ID/50: recalculated as ppm F, 1440 min
[6] = system: S.sanguis 10557; test: as above; assay type: cell-based, Streptococcus sanguis; conditions: for IC50: 50% inhibition in growth, 24 hours, means of triplicate experiments, read-out: ID/50 (the source's name); for ID/50: recalculated as ppm F, 1440 min
[7] = system: L.casei; test: as above; assay type: cell-based, Lactobacillus casei; conditions: for IC50: 50% inhibition in growth, 24 hours, means of triplicate experiments, read-out: ID/50 (the source's name); for ID/50: recalculated as ppm F, 1440 min
[8] = Dissolution of hydroxyapatite discs following fluoride treatment (phosphate release)
[9] = system: Osborne-Mendel rats; test: Rat caries study; assay type: in vivo
[10] = Stability of solution on standing (haze / turbidity)
[11] = normal temperature and pressure
[12] = system: Artificial Plaque; test: In vitro antiplaque study on saliva-coated aluminium plummets; assay type: cell-based; conditions: means ± 95% confidence limits, five replicas
[13] = pH of aqueous solution; assay type: physicochemical
Source text: An aqueous solution of ZnNH4F3 has a pH of 5.8. The preferred pH of oral compositions containing ZnNH4F3 is from 4.5 to 8.0. A 1000 ppm F^- solution was stable.

[14] = Availability of F ion by fluoride-selective electrode; assay type: physicochemical; conditions: Orion fluoride electrode
[15] = complexing between the Zn and NH4; cited from earlier work
[16] = 1000 ppm F- solution, pH 4.0, vs disc treated with buffer alone, means of triplicate, 30 min
[17] = 1000 ppm F- solution, pH 5.0, vs disc treated with buffer alone, means of triplicate, 30 min
[18] = 1000 ppm F- solution, pH 6.0, vs disc treated with buffer alone, means of triplicate, 30 min
[19] = 1000 ppm F- solution, pH 7.0, vs disc treated with buffer alone, means of triplicate, 30 min

| Compound | ID/50 [1] [ppm F] | IC50 [2] [mM] | ID/50 [2] [ppm F] | IC50 [3] [mM] | ID/50 [3] [ppm F] | IC50 [4] [mM] | ID/50 [4] [ppm F] | IC50 [5] [mM] | ID/50 [5] [ppm F] | IC50 [6] [mM] | ID/50 [6] [ppm F] | IC50 [7] [mM] | ID/50 [7] [ppm F] | % Reduction in Dissolution [8, 16] [%] | % Reduction in Dissolution [8, 17] [%] | % Reduction in Dissolution [8, 18] [%] | % Reduction in Dissolution [8, 19] [%] | Percentage Inhibition of Growth of Artificial Plaque ([12]; Zinc Conc. 6.0 mM/L) | Percentage Inhibition of Growth of Artificial Plaque ([12]; Zinc Conc. 15.0 mM/L) | Percentage Inhibition of Growth of Artificial Plaque ([12]; Zinc Conc. 30.0 mM/L) | other results |
| --- | --- | --- | --- | --- | --- | --- | --- | --- | --- | --- | --- | --- | --- | --- | --- | --- | --- | --- | --- | --- | --- |
| [F-].[Na+] [NaF] | 138 | 16.3 | 309 | 13.4 | 255 | 3.77 | 72 | 1.18 | 22 | 1.82 | 35 | > 12 | 352 | 44 | 36 | 31 | 31 |  |  |  | Caries/ Rat ([9]; 1000 ppm F-, topical to molar teeth, 21 days, cariogenic diet, only severe lesions (B & C) scored, water control 5.25): 3.69; % Reduction ([9]; reduction in caries based on the water control, 1000 ppm F-, topical, 21 days): 29.7% |
| [F][Sn][F] [SnF2] |  |  |  |  |  |  |  |  |  |  |  |  |  | 57 | 54 | 45 | 43 |  |  |  | stability of solution ([10]; after 24 hours at room temperature): developed turbidity |
| [F][Zn][F] [ZnF2] |  |  |  |  |  |  |  |  |  |  |  |  |  |  |  |  |  |  |  |  | solubility [11]: 1.5% |
| Cl.N.[Cl-].[Cl-].[Zn+2] [ZnNH4Cl3] |  |  |  | 6.5 |  |  |  | 0.46 |  |  |  | 10 |  |  |  |  |  |  |  |  |  |
| O=S(=O)([O-])[O-].[Zn+2] [ZnSO4] |  | 7.5 |  | 6 |  | 0.75 |  | 0.36 |  | 0.4 |  | 10.4 |  |  |  |  |  | 47 ± 14 | 51 ± 14 | 64 ± 14 |  |
| zinc ammonium fluoride [ZnNH4F3] | 92 | 3.05 | 174 | 1.88 | 104 | 0.34 | 19 | 0.21 | 12 | 0.25 | 14 | 4.7 | 268 |  |  |  |  | 45 ± 14 | 48 ± 14 | 60 ± 14 | % Reduction in Dissolution ([8]; hydroxyapatite discs, pH 4, 30 min): 52%; % Reduction in Dissolution ([8]; hydroxyapatite discs, pH 5, 30 min): 49%; % Reduction in Dissolution ([8]; hydroxyapatite discs, pH 6, 30 min): 43%; % Reduction in Dissolution ([8]; hydroxyapatite discs, pH 7, 30 min): 40%; % Reduction ([9]; rat, in vivo): 30.9%; Caries/ Rat ([9]; rat, in vivo): 3.63; pH of aqueous solution [13]: 5.8; availability of F ion ([14]; solution at 1000 ppm F level): 100%; availability of F ion ([14]; solution at 2500 ppm F level): 100%; log K [15]: 2.18-2.59; stability of solution ([10]; 1000 ppm F- solution, not hazy on standing after several weeks): stable |
